{"source": "patent US11413278B2", "about": "“Compounds and methods for promoting stress resistance” (priority 2015, dated 2022)", "key": {"LC3A/B puncta": {"tested_on": "LC3A/B puncta", "experiment": "Autophagy induction analysis (LC3A/B puncta immuno-staining)", "assay_type": "cell-based, human", "how_it_was_run": "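Read-out is LC3A/B puncta intensity per DAPI-positive nucleus, either total puncta (Exp. 1) or puncta colocalizing with LAMP2 lysosomes (Exp. 2). Cells were WI-38, exposed to compounds for 24 hrs before antibody staining overnight at 4° C and automated imaging.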"}, "WI-38 cells": {"tested_on": "WI-38 cells", "experiment": "Long-term effects on cell viability (5 days, ATP; morphology, PI imaging);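 for Luminescence signal for ATP measurement, day-2 Average: compounds at 10 µM with ATP read daily over 5 days of treatment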;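 for Luminescence signal for ATP measurement, day-3 Average: compounds at 10 µM with ATP read daily over 5 days of treatment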;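 for Luminescence signal for ATP measurement, day-4 Average: compounds at 10 µM with ATP read daily over 5 days of treatment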;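 for Luminescence signal for ATP measurement, day-5 Average: compounds at 10 µM with ATP read daily over 5 days of treatment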", "assay_type": "cell-based", "conditions": "10 μM; for Luminescence signal for ATP measurement, day-1 Average / Luminescence signal for ATP measurement, day-2 Average / Luminescence signal for ATP measurement, day-3 Average / Luminescence signal for ATP measurement, day-4 Average / Luminescence signal for ATP measurement, day-5 Average / viability at 10 µM: Batch 1; for Luminescence signal for ATP measurement, day-1 Average / Luminescence signal for ATP measurement, day-2 Average / Luminescence signal for ATP measurement, day-3 Average / Luminescence signal for ATP measurement, day-4 Average / Luminescence signal for ATP measurement, day-5 Average: n = 6, day-0 luminescence = 320956 ± 24708; for viability at 10 µM: Homo sapiens, WI-38, 120 h, DMSO ctrl = 100.0%, read-out: ATP luminescence by day-5 normalized; for Luminescence signal for ATP measurement, day-5 Average / viability at 10 µM: day-5; for O = Potential toxicity / Q = Potential toxicity: human, 5 days"}, "NRF2": {"tested_on": "NRF2", "experiment": "qPCR analysis of NRF2-regulated genes", "assay_type": "cell-based, human", "conditions": "for Potential NRF2 Activation (>=2 target genes induced, by >=1.5-fold): Assay 13(p); for fold induction at 10 µM: Homo sapiens", "how_it_was_run": "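Expression of HMOX1, NQO1, GCLC and GSTM1 measured by qPCR relative to B2M, PPIA and GAPDH. Cells were WI-38 fibroblasts exposed 24 hrs to 10 μM compound, with RNA and cDNA prepared via Cells-to-Ct. Where stated, cells were first transfected 36 hrs with FOXO3 or NRF2 siRNA at 10 nM.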"}, "[1]": {"conditions": "24 h, Assay 12(o), at 10 uM, qPCR, read-out: Induction of NRF2-regulated genes: GSTM1 normalized fold-change"}, "[2]": {"conditions": "24 h, Assay 12(o), at 10 uM, qPCR, read-out: Induction of NRF2-regulated genes: HMOX1 normalized fold-change"}, "[3]": {"conditions": "24 h, Assay 12(o), at 10 uM, qPCR, read-out: Induction of NRF2-regulated genes: NQO1 normalized fold-change"}, "[4]": {"conditions": "rounded fold change, WI-38 cells, 10 μM, 24 hrs (RP11 for Gr-1D, RP29 for Gr-4D), read-out: Summary of effects on NRF2-regulated genes: HMOX1"}, "[5]": {"conditions": "rounded fold change, WI-38 cells, 10 μM, 24 hrs (RP29 for Gr-4D), read-out: Summary of effects on NRF2-regulated genes: GSTM1"}, "[6]": {"conditions": "rounded fold change, WI-38 cells, 10 μM, 24 hrs (RP29 for Gr-4D), read-out: Summary of effects on NRF2-regulated genes: NQO1"}, "[7]": {"conditions": "10 μM, 24 hrs, WI-38, read-out: Expression of at least two NRF2 target genes"}, "[8]": {"conditions": "10 μM, 24 hrs, WI-38 cells, qPCR, normalized to B2M, n = 4, read-out: GSTM1 expression, normalized fold change (NRF2-regulated gene)"}, "[9]": {"conditions": "10 μM, 24 hrs, WI-38 cells, qPCR, normalized to B2M, n = 4, read-out: HMOX1 expression, normalized fold change (NRF2-regulated gene)"}, "[10]": {"conditions": "10 μM, 24 hrs, WI-38 cells, qPCR, normalized to B2M, n = 4, read-out: NQO1 expression, normalized fold change (NRF2-regulated gene)"}, "[11]": {"conditions": "WI-38 cells, 10 μM, 24 hrs, n=4, qPCR normalized by B2M, read-out: GCLC Normalized fold change"}, "[12]": {"conditions": "WI-38 cells, 10 μM, 24 hrs, n=4, qPCR normalized by B2M, read-out: GSTM1 Normalized fold change"}, "[13]": {"conditions": "WI-38 cells, 10 μM, 24 hrs, n=4, qPCR normalized by B2M, read-out: HMOX1 Normalized fold change"}, "[14]": {"conditions": "WI-38 cells, 10 μM, 24 hrs, n=4, qPCR normalized by B2M, read-out: NQO1 Normalized fold change"}}, "note": "Read-outs that look alike come from different tables or passages of the source."}
{"smiles": "COc1ccc(C(=O)/C=C/c2cccc(Cl)c2)c(OC)c1", "note": "[Gr-4C]", "values": [{"measurement": "H = Potential Autophagy Induction", "setting": "LC3A/B puncta; score", "value": 0}, {"measurement": "H = Potential Autophagy Induction", "setting": "LC3A/B puncta; summary score", "value": 0}, {"measurement": "Luminescence signal for ATP measurement, day-1 Average", "setting": "WI-38 cells", "value": 413360}, {"measurement": "Luminescence signal for ATP measurement, day-2 Average", "setting": "WI-38 cells", "value": 474171}, {"measurement": "Luminescence signal for ATP measurement, day-3 Average", "setting": "WI-38 cells", "value": 485641}, {"measurement": "Luminescence signal for ATP measurement, day-4 Average", "setting": "WI-38 cells", "value": 769380}, {"measurement": "Luminescence signal for ATP measurement, day-5 Average", "setting": "WI-38 cells", "value": 813018}, {"measurement": "viability at 10 µM", "setting": "WI-38 cells", "value": 79.2, "unit": "%"}, {"measurement": "O = Potential toxicity", "setting": "WI-38 cells", "value": 0}, {"measurement": "Q = Potential toxicity", "setting": "WI-38 cells", "value": 0}, {"measurement": "F = Potential NRF2 Activation", "setting": "NRF2; 2-point score", "value": 2}, {"measurement": "Potential NRF2 Activation (>=2 target genes induced, by >=1.5-fold)", "setting": "NRF2", "value": "YES"}, {"measurement": "fold induction at 10 µM", "setting": "NRF2; 24 h, Assay 12(o), at 10 uM, qPCR, read-out: Induction of NRF2-regulated genes: GCLC normalized fold-change", "value": 2.51}, {"measurement": "fold induction at 10 µM", "setting": "NRF2; [1]", "value": 1.63}, {"measurement": "fold induction at 10 µM", "setting": "NRF2; [2]", "value": 89.5}, {"measurement": "fold induction at 10 µM", "setting": "NRF2; [3]", "value": 5}, {"measurement": "fold induction at 10 µM", "setting": "NRF2; [4]", "value": 89.5}, {"measurement": "fold induction at 10 µM", "setting": "NRF2; [5]", "value": 1.63}, {"measurement": "fold induction at 10 µM", "setting": "NRF2; [6]", "value": 5}, {"measurement": "fold induction at 10 µM", "setting": "NRF2; rounded fold change, WI-38 cells, 10 μM, 24 hrs, read-out: Summary of effects on NRF2-regulated genes: GCLC", "value": 2.51}, {"measurement": "fold induction at 10 µM", "setting": "NRF2; [7]", "value": "> 1.5"}, {"measurement": "fold induction at 10 µM", "setting": "NRF2; 10 μM, 24 hrs, WI-38 cells, qPCR, normalized to B2M, n = 4, read-out: GCLC expression, normalized fold change (NRF2-regulated gene)", "value": 2.51}, {"measurement": "fold induction at 10 µM", "setting": "NRF2; [8]", "value": 1.63}, {"measurement": "fold induction at 10 µM", "setting": "NRF2; [9]", "value": 89.5}, {"measurement": "fold induction at 10 µM", "setting": "NRF2; [10]", "value": 5}, {"measurement": "fold induction at 10 µM", "setting": "NRF2; [11]", "value": 2.51}, {"measurement": "fold induction at 10 µM", "setting": "NRF2; [12]", "value": 1.63}, {"measurement": "fold induction at 10 µM", "setting": "NRF2; [13]", "value": 89.5}, {"measurement": "fold induction at 10 µM", "setting": "NRF2; [14]", "value": 5}, {"measurement": "F = Potential NRF2 Activation", "setting": "NRF2; summary score", "value": 2}]}
{"smiles": "COc1ccc(C(=O)/C=C/c2ccc(F)cc2)c(OC)c1", "note": "[Gr-4A]", "values": [{"measurement": "H = Potential Autophagy Induction", "setting": "LC3A/B puncta; score", "value": 0}, {"measurement": "H = Potential Autophagy Induction", "setting": "LC3A/B puncta; summary score", "value": 0}, {"measurement": "Luminescence signal for ATP measurement, day-1 Average", "setting": "WI-38 cells", "value": 501436}, {"measurement": "Luminescence signal for ATP measurement, day-2 Average", "setting": "WI-38 cells", "value": 605711}, {"measurement": "Luminescence signal for ATP measurement, day-3 Average", "setting": "WI-38 cells", "value": 772420}, {"measurement": "Luminescence signal for ATP measurement, day-4 Average", "setting": "WI-38 cells", "value": 995321}, {"measurement": "Luminescence signal for ATP measurement, day-5 Average", "setting": "WI-38 cells", "value": 1019996}, {"measurement": "viability at 10 µM", "setting": "WI-38 cells", "value": 99.3, "unit": "%"}, {"measurement": "O = Potential toxicity", "setting": "WI-38 cells", "value": 0}, {"measurement": "Q = Potential toxicity", "setting": "WI-38 cells", "value": 0}, {"measurement": "F = Potential NRF2 Activation", "setting": "NRF2; 2-point score", "value": 2}, {"measurement": "Potential NRF2 Activation (>=2 target genes induced, by >=1.5-fold)", "setting": "NRF2", "value": "YES"}, {"measurement": "fold induction at 10 µM", "setting": "NRF2; [1]", "value": 1.24}, {"measurement": "fold induction at 10 µM", "setting": "NRF2; [2]", "value": 5.24}, {"measurement": "fold induction at 10 µM", "setting": "NRF2; [3]", "value": 2.73}, {"measurement": "fold induction at 10 µM", "setting": "NRF2; [4]", "value": 5.24}, {"measurement": "fold induction at 10 µM", "setting": "NRF2; [5]", "value": 1.24}, {"measurement": "fold induction at 10 µM", "setting": "NRF2; [6]", "value": 2.73}, {"measurement": "fold induction at 10 µM", "setting": "NRF2; [7]", "value": "> 1.5"}, {"measurement": "fold induction at 10 µM", "setting": "NRF2; [8]", "value": 1.24}, {"measurement": "fold induction at 10 µM", "setting": "NRF2; [9]", "value": 5.24}, {"measurement": "fold induction at 10 µM", "setting": "NRF2; [10]", "value": 2.73}, {"measurement": "fold induction at 10 µM", "setting": "NRF2; [11]", "value": 1.18}, {"measurement": "fold induction at 10 µM", "setting": "NRF2; [12]", "value": 1.24}, {"measurement": "fold induction at 10 µM", "setting": "NRF2; [13]", "value": 5.24}, {"measurement": "fold induction at 10 µM", "setting": "NRF2; [14]", "value": 2.73}, {"measurement": "F = Potential NRF2 Activation", "setting": "NRF2; summary score", "value": 2}]}
